# US20230056135A1, “MONOMER AND MULTIMERIC ANTI-HBV AGENTS” (priority 2018, published 2023)
# Read-outs that look alike come from different tables or passages of the source.
# Tests used:
# wild type HBV = test: Anti-HBV assay in AD-38 cell line (HBV in culture supernatant); type: cell-based; conditions: for EC50: read-out: Anti-HBV activity EC50; for EC90: read-out: Anti-HBV activity EC90
# Procedure: The anti-HBV activity of the compounds was determined by treating the AD-38 cell line carrying wild type HBV under the control of tetracycline (see Ladner S. K., Otto M. J., Barker C. S., Zaifert K., Wang G. H., Guo J. T., Seeger C. & King R. W. Antimicrob. Agents Chemother. 1997, 41, 1715-20). Removal of tetracycline from the medium [Tet (−)] results in the production of HBV. The levels of HBV in the culture supernatant fluids from cells treated with the compounds were compared with that of the untreated controls. Control cultures with tetracycline [Tet (+)] were also maintained to determine the basal levels of HBV expression. 3TC was included as positive control.
# The median effective concentrations (EC50) ranges of several of the compounds described herein against HBV are shown in Table 3: […]
# human PBM = test: Cellular toxicity assay in human PBM cells; type: cell-based; conditions: human PBM cells; read-out: Cytotoxicity; CC50 (μM) PBM
# Procedure: (§1) The toxicity of the compounds was assessed in Vero, human PBM, CEM (human lymphoblastoid), MT-2, and HepG2 cells, as described previously (see Schinazi R. F., Sommadossi J.-P., Saalmann V., Cannon D. L., Xie M.-Y., Hart G. C., Smith G. A. & Hahn E. F. Antimicrob. Agents Chemother. 1990, 34, 1061-67). Cycloheximide was included as positive cytotoxic control, and untreated cells exposed to solvent were included as negative controls. The cytotoxicity IC50 was obtained from the concentration-response curve using the median effective method described previously (see Chou T.-C. & Talalay P. Adv. Enzyme Regul. 1984, 22, 27-55; Belen'kii M. S. & Schinazi R. F. Antiviral Res. 1994, 25, 1-11).
# HepG2 cells = test: Cellular toxicity assay in HepG2 cells; type: cell-based; conditions: HepG2 cells; read-out: Cytotoxicity; CC50 (μM) HepG2
# Procedure: as §1
# [1] = Cellular toxicity assay in human PBM cells; type: cell-based
# Procedure: as §1
# [2] = Cellular toxicity assay in HepG2 cells; type: cell-based; conditions: human
# Procedure: as §1
# Glutathione levels (GSH) = test: Glutathione levels in Huh7 cells (GSH-Glo Glutathione Assay); type: cell-based
# Procedure: Glutathione levels (GSH) were measured in Huh7 cells after 22 h treatment with 10 μM CAMs (GSH-Glo™ Glutathione Assay—Promega). Treatment of Huh7 with 10 μM positive control, L-buthionine-sulfoximine, reduced cellular GSH levels by 58% (data not shown); Samples were tested in triplicates.
# [3] = Cellular toxicity assay in Vero cells; type: cell-based; conditions: African green monkey
# Procedure: as §1
# [4] = Cellular toxicity assay in CEM cells; type: cell-based, human; conditions: human
# Procedure: as §1
# [5] = Hepatitis B virus, AD-38 cell line, Tet (-)
# [6] = human, human PBM cells, read-out: Cytotoxicity, CC50 (μM) PBM
# [7] = HepG2 cells, read-out: Cytotoxicity, CC50 (μM) HepG2
# [8] = Vero cells, read-out: Cytotoxicity, CC50 (μM) VERO
# [9] = CEM lymphoblastoid cells, CEM cells, read-out: Cytotoxicity, CC50 (μM) CEM
Compound,EC50 (wild type HBV; [5]) [µM],"CC50 [1, 6] [µM]","CC50 [2, 7] [µM]","CC50 [3, 8] [µM]",EC90 (wild type HBV; [5]) [µM],"CC50 [4, 9] [µM]",other results
"Cc1c(C(=O)C(=O)NCc2cn(CCOCCOCCOCC(CO)COCCOCCOCCn3cc(CNC(=O)C(=O)c4c(C)c(C(=O)Nc5ccc(F)c(F)c5)n(C)c4C)nn3)nn2)c(C)n(C)c1C(=O)Nc1ccc(F)c(F)c1 [Compound 101, 4,4′-(2,2′-((((11-(Hydroxymethyl)-3,6,9,13,16,19-hexaoxahenicosane-1,21-diyl)bis(1H-1,2,3-triazole-1,4-diyl))bis(methylene))bis(azanediyl))bis(2-oxoacetyl))bis(N-(3,4-difluorophenyl)-1,3,5-trimethyl-1H-pyrrole-2-carboxamide)]",,,,,,,"EC50 (wild type HBV; AD-38 cell line, Tet (-)): 0.01 to 0.1 µM; CC50 (human PBM): > 100 µM; CC50 (HepG2 cells): > 100 µM"
"C#CCn1c(C)c(C(=O)C(=O)NC(C#C)(CC)CC)c(C)c1C(=O)Nc1ccc(F)c(F)c1 [Compound 115, N-(3,4-Difluorophenyl)-4-(2-((3-ethylpent-1-yn-3-yl)amino)-2-oxoacetyl)-3,5-dimethyl-1-(prop-2-yn-1-yl)-1H-pyrrole-2-carboxamide]",0.0001 to 0.001,45,35,,,,"GSH levels relative to untreated control (Glutathione levels (GSH); 22 h treatment): > 10 µM; inhibition at 10 µM (Glutathione levels (GSH); Homo sapiens, Huh-7, read-out: GSH levels relative to untreated control (% inhibition at 10 μM), 22 h, 10 μM): < 1%"
"CCOC(=O)C1=C(CNCc2cn(CCOCCOCCOCCOCCOCCn3cc(CNC(=O)C(=O)c4c(C)c(C(=O)Nc5ccc(F)c(F)c5)n(C)c4C)nn3)nn2)NC(c2nccs2)=NC1c1ccc(F)cc1Br (stereo not drawn) [Compound 50, Ethyl 4-(2-bromo-4-fluorophenyl)-6-((((1-(17-(4-((2-(5-((3,4-difluorophenyl)carbamoyl)-1,2,4-trimethyl-1H-pyrrol-3-yl)-2-oxoacetamido)methyl)-1H-1,2,3-triazol-1-yl)-3,6,9,12,15-pentaoxaheptadecyl)-1H-1,2,3-triazol-4-yl)methyl)amino)methyl)-2-(thiazol-2-yl)-1,4-dihydropyrimidine-5-carboxylate]",0.1 to 1,99,> 100,> 100,1 to 10,27,
"CCOC(=O)C1=C(CNCc2cn(CCCCCCCCCCCCn3cc(CNC(=O)C(=O)c4c(C)c(C(=O)Nc5ccc(F)c(F)c5)n(C)c4C)nn3)nn2)NC(c2nccs2)=NC1c1ccc(F)cc1Br (stereo not drawn) [Compound 23, Ethyl 4-(2-bromo-4-fluorophenyl)-6-((((1-(12-(4-((2-(5-((3,4-difluorophenyl)-carbamoyl)-1,2,4-trimethyl-1H-pyrrol-3-yl)-2-oxoacetamido)methyl)-1H-1,2,3-triazol-1-yl)dodecyl)-1H-1,2,3-triazol-4-yl)methyl)amino)methyl)-2-(thiazol-2-yl)-1,4-dihydropyrimidine-5-carboxylate]",0.01 to 0.1,> 100,63,> 100,0.1 to 1,14,
"O=S(=O)(NC1CC2=C(C#CC3CC3)C(c3ccc(F)cc3Cl)N=C(c3nccs3)N2C1)C1CC1 (stereo not drawn) [Compound 45, N-(3-(2-Chloro-4-fluorophenyl)-4-(cyclopropylethynyl)-1-(thiazol-2-yl)-3,5,6,7-tetrahydro-pyrrolo[1,2-c]pyrimidin-6-yl)cyclopropanesulfonamide]",0.01 to 0.1,75,> 100,> 100,0.1 to 1,24,
"Cc1c(C(=O)C(=O)NCCCB(O)O)c(C)n(C)c1C(=O)Nc1ccc(F)c(F)c1 [Compound 64, (3-(2-(5-((3,4-Difluorophenyl)carbamoyl)-1,2,4-trimethyl-1H-pyrrol-3-yl)-2-oxoacetamido)propyl)boronic acid]",0.01 to 0.1,62,98,76,0.01 to 0.1,26,
"Cc1c(C(=O)C(=O)NCCCCCCCCO)c(C)n(C)c1C(=O)Nc1ccc(F)c(F)c1 [Compound 60, N-(3,4-Difluorophenyl)-4-(2-(8-hydroxyoctylamino)-2-oxoacetyl)-1,3,5-trimethyl-1H-pyrrole-2-carboxamide]",0.01 to 0.1,36,63,14,0.1 to 1,4,
"Cc1c(C(=O)C(=O)NCCCB2OC3CC4CC(C4(C)C)C3(C)O2)c(C)n(C)c1C(=O)Nc1ccc(F)c(F)c1 (stereo not drawn) [Compound 62, N-(3,4-difluorophenyl)-1,3,5-trimethyl-4-(2-oxo-2-((3-(3a,5,5-trimethylhexahydro-4,6-methanobenzo[d][1,3,2]dioxaborol-2-yl)propyl)amino)acetyl)-1H-pyrrole-2-carboxamide]",0.01 to 0.1,13,6,7,0.01 to 0.1,4,
"4,4′-(2,2′-(((Tetradecane-1,14-diylbis(1H-1,2,3-triazole-1,4-diyl))bis(methylene)) bis(azanediyl)) bis(2-oxoacetyl))bis(N-(3,4-difluorophenyl)-1,3,5-trimethyl-1H-pyrrole-2-carboxamide) [Compound 80]",,,,,,,"EC50 (wild type HBV; AD-38 cell line, Tet (-)): 0.001 to 0.01 µM; CC50 (human PBM): > 100 µM; CC50 (HepG2 cells): > 100 µM"
"Cc1c(C(=O)C(=O)NCCCCO[P@@](=O)(N[C@@H](C)C(=O)OC(C)C)Oc2ccccc2)c(C)n(C)c1C(=O)Nc1ccc(F)c(F)c1 [Compound 58, Isopropyl ((S)-(4-(2-(5-((3,4-difluorophenyl)carbamoyl)-1,2,4-trimethyl-1H-pyrrol-3-yl)-2-oxoacetamido)butoxy)(phenoxy)phosphoryl)-L-alaninate]",,,29,12,,,"EC50 (wild type HBV; Hepatitis B virus): 0.1 to 1 µM; EC90 (wild type HBV; Hepatitis B virus): 1 to 10 µM; CC50 ([4]; CEM cells, read-out: Cytotoxicity, CC50 (μM) CEM): 10 µM; CC50 ([1]; human PBM cells, read-out: Cytotoxicity, CC50 (μM) PBM): 7 µM"
"Fc1ccc(C2N=C(c3nccs3)NC(CN3CCOCC3)=C2C#CC2CC2)c(Br)c1 (stereo not drawn) [Compound 17, 4-((6-(2-Bromo-4-fluorophenyl)-5-(cyclopropylethynyl)-2-(thiazol-2-yl)-3,6-dihydropyrimidin-4-yl)methyl)morpholine]",0.01 to 0.1,19,81,23,0.1 to 1,17,
"CCOC(=O)C1=C(CNCc2cn(CCCCCCCCn3cc(CNCC4=C(C(=O)OCC)C(c5ccc(F)cc5Br)N=C(c5nccs5)N4)nn3)nn2)NC(c2nccs2)=NC1c1ccc(F)cc1Br (stereo not drawn) [Compound 17c, Diethyl 6,6′-((((octane-1,8-diylbis(1H-1,2,3-triazole-1,4-diyl))bis(methylene))bis-(azanediyl))bis(methylene))bis(4-(2-bromo-4-fluorophenyl)-2-(thiazol-2-yl)-1,4-dihydropyrimidine-5-carboxylate)]",1 to 10,11,38.5,> 100,1 to 10,7.1,
"Fc1ccc(C2N=C(c3ccccn3)NC(CN3CCOCC3)=C2C#CC2CC2)c(Cl)c1 (stereo not drawn) [Compound 8, 4-((6-(2-Chloro-4-fluorophenyl)-5-(cyclopropylethynyl)-2-(pyridin-2-yl)-3,6-dihydropyrimidin-4-yl)methyl)morpholine]",0.1 to 1,62,36,49,0.1 to 1,20,
"CCCCS(=N)(=O)CCC(N)C(=O)O [L-buthionine-sulfoximine, reference compound]",,,,,,,reduction of cellular GSH levels (Glutathione levels (GSH); 10 μM positive control): 58%
"O=C(Nc1ccc(F)c(Cl)c1)N1[C@@H]2CC[C@H]1c1c(-c3cscn3)n[nH]c1C2 [Compound 33, (4S,7R)—N-(3-Chloro-4-fluorophenyl)-3-(thiazol-4-yl)-1,4,5,6,7,8-hexahydro-4,7-epiminocyclo hepta[c]pyrazole-9-carboxamide]",0.1 to 1,,,,1 to 10,,CC50 [3]: 61 µM; CC50 [4]: 32 µM; CC50 ([1]; human): 32 µM; CC50 [2]: 19 µM
